Data as given in PubChem BioAssay AID1918998 (Molecular Pharmacology Branch, DTP, NCI, 2023).

Test system: 521955-158-R2-J5-PDC complex spheroid growth
Assay: Anticancer human tumor 521955-158-R2-J5-PDC patient-derived pancreatic carcinoma cell line growth inhibition [AhR]
Conditions: for IC50: curve of first compound; for viability, T/C: stronger effect = lower value; active = viability on the fitted dose curve at most 10% of control; inactive = the rest
Outline: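 Agents were dosed in half-log steps down from roughly clinical Cmax, or from 10 microM where Cmax was unknown, alone and with AhR antagonists. Read-out: percent test/control growth of tumor spheroids containing HUVEC and MSC stromal cells.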

[1] = second compound 0.1 µM, first compound 0.0316 µM
[2] = second compound 0.1 µM, first compound 0.1 µM
[3] = second compound 0.1 µM, first compound 0.316 µM
[4] = second compound 0.1 µM, first compound 1 µM
[5] = second compound 0.1 µM, first compound 3.16 µM
[6] = second compound 0.1 µM, first compound 10 µM
[7] = second compound 0.316 µM, first compound 0.0316 µM
[8] = second compound 0.316 µM, first compound 0.1 µM
[9] = second compound 0.316 µM, first compound 0.316 µM
[10] = second compound 0.316 µM, first compound 1 µM
[11] = second compound 0.316 µM, first compound 3.16 µM
[12] = second compound 0.316 µM, first compound 10 µM
[13] = second compound 1 µM, first compound 0.0316 µM
[14] = second compound 1 µM, first compound 0.1 µM
[15] = second compound 1 µM, first compound 0.316 µM
[16] = second compound 1 µM, first compound 1 µM
[17] = second compound 1 µM, first compound 3.16 µM
[18] = second compound 1 µM, first compound 10 µM
[19] = second compound 3.16 µM, first compound 0.0316 µM
[20] = second compound 3.16 µM, first compound 0.1 µM
[21] = second compound 3.16 µM, first compound 0.316 µM
[22] = second compound 3.16 µM, first compound 1 µM
[23] = second compound 3.16 µM, first compound 3.16 µM
[24] = second compound 3.16 µM, first compound 10 µM
[25] = second compound 10 µM, first compound 0.0316 µM
[26] = second compound 10 µM, first compound 0.1 µM
[27] = second compound 10 µM, first compound 0.316 µM
[28] = second compound 10 µM, first compound 1 µM
[29] = second compound 10 µM, first compound 3.16 µM
[30] = second compound 10 µM, first compound 10 µM
[31] = second compound 0.1 µM, first compound 0.00949 µM
[32] = second compound 0.1 µM, first compound 0.03 µM
[33] = second compound 0.1 µM, first compound 0.0949 µM
[34] = second compound 0.1 µM, first compound 0.3 µM
[35] = second compound 0.316 µM, first compound 0.00949 µM
[36] = second compound 0.316 µM, first compound 0.03 µM
[37] = second compound 0.316 µM, first compound 0.0949 µM
[38] = second compound 0.316 µM, first compound 0.3 µM
[39] = second compound 1 µM, first compound 0.00949 µM
[40] = second compound 1 µM, first compound 0.03 µM
[41] = second compound 1 µM, first compound 0.0949 µM
[42] = second compound 1 µM, first compound 0.3 µM
[43] = second compound 3.16 µM, first compound 0.00949 µM
[44] = second compound 3.16 µM, first compound 0.03 µM
[45] = second compound 3.16 µM, first compound 0.0949 µM
[46] = second compound 3.16 µM, first compound 0.3 µM
[47] = second compound 10 µM, first compound 0.00949 µM
[48] = second compound 10 µM, first compound 0.03 µM
[49] = second compound 10 µM, first compound 0.0949 µM
[50] = second compound 10 µM, first compound 0.3 µM
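Throughout, for viability, T/C: spheroids mix tumor cells with HUVEC endothelium and human MSC stroma; luminescence taken as viability surrogate after a week of drug exposure.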

CC1(C)CCC(CN2CCN(c3ccc(C(=O)NS(=O)(=O)c4ccc(NCC5CCOCC5)c([N+](=O)[O-])c4)c(Oc4cnc5[nH]ccc5c4)c3)CC2)=C(c2ccc(Cl)cc2)C1 + Cc1ccccc1N=Nc1ccc(NC(=O)c2ccnn2C)c(C)c1
> 10000 nM: IC50 (second compound 0.1 µM) | IC50 (second compound 0.316 µM) | IC50 (second compound 1 µM) | IC50 (second compound 3.16 µM) | IC50 (second compound 10 µM)
inactive: viability, T/C [1] 114% | viability, T/C [2] 140% | viability, T/C [3] 96.5% | viability, T/C [4] 102% | viability, T/C [5] 104% | viability, T/C [6] 103% | viability, T/C [7] 110% | viability, T/C [8] 99.9% | viability, T/C [9] 116% | viability, T/C [10] 108% | viability, T/C [11] 107% | viability, T/C [12] 96% | viability, T/C [13] 120% | viability, T/C [14] 144% | viability, T/C [15] 133% | viability, T/C [16] 116% | viability, T/C [17] 98.8% | viability, T/C [18] 94.5% | viability, T/C [19] 135% | viability, T/C [20] 155% | viability, T/C [21] 165% | viability, T/C [22] 119% | viability, T/C [23] 130% | viability, T/C [24] 84.6% | viability, T/C [25] 166% | viability, T/C [26] 162% | viability, T/C [27] 158% | viability, T/C [28] 151% | viability, T/C [29] 108% | viability, T/C [30] 72.6%

CCN(c1cc(-c2ccc(CN3CCOCC3)cc2)cc(C(=O)NCc2c(C)cc(C)[nH]c2=O)c1C)C1CCOCC1 + Cc1ccccc1N=Nc1ccc(NC(=O)c2ccnn2C)c(C)c1
inactive: viability, T/C [31] 123% | viability, T/C [32] 110% | viability, T/C [33] 103% | viability, T/C [34] 89.1% | viability, T/C (second compound 0.1 µM, first compound 0.949 µM) 74.4% | viability, T/C (second compound 0.1 µM, first compound 3 µM) 79.9% | viability, T/C [35] 111% | viability, T/C [36] 106% | viability, T/C [37] 110% | viability, T/C [38] 83.1% | viability, T/C (second compound 0.316 µM, first compound 0.949 µM) 76.6% | viability, T/C (second compound 0.316 µM, first compound 3 µM) 84.3% | viability, T/C [39] 96.6% | viability, T/C [40] 113% | viability, T/C [41] 97.2% | viability, T/C [42] 83.6% | viability, T/C (second compound 1 µM, first compound 0.949 µM) 95.7% | viability, T/C (second compound 1 µM, first compound 3 µM) 87.6% | viability, T/C [43] 126% | viability, T/C [44] 128% | viability, T/C [45] 128% | viability, T/C [46] 125% | viability, T/C (second compound 3.16 µM, first compound 0.949 µM) 102% | viability, T/C (second compound 3.16 µM, first compound 3 µM) 112% | viability, T/C [47] 164% | viability, T/C [48] 153% | viability, T/C [49] 166% | viability, T/C [50] 150% | viability, T/C (second compound 10 µM, first compound 0.949 µM) 126% | viability, T/C (second compound 10 µM, first compound 3 µM) 122%
> 3000 nM: IC50 (second compound 0.1 µM) | IC50 (second compound 0.316 µM) | IC50 (second compound 1 µM) | IC50 (second compound 3.16 µM) | IC50 (second compound 10 µM)

Cn1ncnc1C1c2n[nH]c(=O)c3cc(F)cc(c23)NC1c1ccc(F)cc1 (stereo not given) + Cc1ccccc1N=Nc1ccc(NC(=O)c2ccnn2C)c(C)c1
inactive: viability, T/C (second compound 0.1 µM, first compound 0.000316 µM) 110% | viability, T/C (second compound 0.1 µM, first compound 0.001 µM) 115% | viability, T/C (second compound 0.1 µM, first compound 0.00316 µM) 108% | viability, T/C (second compound 0.1 µM, first compound 0.01 µM) 103% | viability, T/C [1] 105% | viability, T/C [2] 75.4% | viability, T/C (second compound 0.316 µM, first compound 0.000316 µM) 111% | viability, T/C (second compound 0.316 µM, first compound 0.001 µM) 119% | viability, T/C (second compound 0.316 µM, first compound 0.00316 µM) 108% | viability, T/C (second compound 0.316 µM, first compound 0.01 µM) 98.5% | viability, T/C [7] 97.8% | viability, T/C [8] 89.1% | viability, T/C (second compound 1 µM, first compound 0.000316 µM) 111% | viability, T/C (second compound 1 µM, first compound 0.001 µM) 107% | viability, T/C (second compound 1 µM, first compound 0.00316 µM) 138% | viability, T/C (second compound 1 µM, first compound 0.01 µM) 118% | viability, T/C [13] 118% | viability, T/C [14] 115% | viability, T/C (second compound 3.16 µM, first compound 0.000316 µM) 140% | viability, T/C (second compound 3.16 µM, first compound 0.001 µM) 150% | viability, T/C (second compound 3.16 µM, first compound 0.00316 µM) 142% | viability, T/C (second compound 3.16 µM, first compound 0.01 µM) 154% | viability, T/C [19] 128% | viability, T/C [20] 128% | viability, T/C (second compound 10 µM, first compound 0.000316 µM) 158% | viability, T/C (second compound 10 µM, first compound 0.001 µM) 148% | viability, T/C (second compound 10 µM, first compound 0.00316 µM) 158% | viability, T/C (second compound 10 µM, first compound 0.01 µM) 146% | viability, T/C [25] 143% | viability, T/C [26] 141%
> 100 nM: IC50 (second compound 0.1 µM) | IC50 (second compound 0.316 µM) | IC50 (second compound 1 µM) | IC50 (second compound 3.16 µM) | IC50 (second compound 10 µM)

NS(=O)(=O)OCC1CC(n2ccc3c(NC4CCc5ccccc54)ncnc32)CC1O (stereo not given) + Cc1ccccc1N=Nc1ccc(NC(=O)c2ccnn2C)c(C)c1
941 nM: IC50 (second compound 1 µM)
821 nM: IC50 (second compound 3.16 µM)
1360 nM: IC50 (second compound 0.1 µM)
inactive: viability, T/C [1] 118% | viability, T/C [2] 115% | viability, T/C [3] 102% | viability, T/C [4] 56.7% | viability, T/C [5] 30.4% | viability, T/C [6] 20.8% | viability, T/C [7] 111% | viability, T/C [8] 105% | viability, T/C [9] 87.5% | viability, T/C [10] 53.5% | viability, T/C [11] 30.9% | viability, T/C [12] 21.9% | viability, T/C [13] 114% | viability, T/C [14] 111% | viability, T/C [15] 88.3% | viability, T/C [16] 47.6% | viability, T/C [17] 29.6% | viability, T/C [18] 23.7% | viability, T/C [19] 137% | viability, T/C [20] 110% | viability, T/C [21] 77.6% | viability, T/C [22] 45.2% | viability, T/C [23] 23.7% | viability, T/C [24] 21.8% | viability, T/C [25] 108% | viability, T/C [26] 91.2% | viability, T/C [27] 50.8% | viability, T/C [28] 32.1% | viability, T/C [29] 25.2% | viability, T/C [30] 25.6%
343 nM: IC50 (second compound 10 µM)
1220 nM: IC50 (second compound 0.316 µM)

Nc1ncn(C2CC(O)C(CO)S2)c(=O)n1 (stereo not given) + Cc1ccccc1N=Nc1ccc(NC(=O)c2ccnn2C)c(C)c1
inactive: viability, T/C (second compound 0.1 µM, first compound 0.000949 µM) 125% | viability, T/C (second compound 0.1 µM, first compound 0.003 µM) 103% | viability, T/C [31] 104% | viability, T/C [32] 104% | viability, T/C [33] 98% | viability, T/C [34] 73% | viability, T/C (second compound 0.316 µM, first compound 0.000949 µM) 92.9% | viability, T/C (second compound 0.316 µM, first compound 0.003 µM) 132% | viability, T/C [35] 107% | viability, T/C [36] 100% | viability, T/C [37] 80.5% | viability, T/C [38] 78.2% | viability, T/C (second compound 1 µM, first compound 0.000949 µM) 100% | viability, T/C (second compound 1 µM, first compound 0.003 µM) 146% | viability, T/C [39] 108% | viability, T/C [40] 91% | viability, T/C [41] 99.9% | viability, T/C [42] 102% | viability, T/C (second compound 3.16 µM, first compound 0.000949 µM) 135% | viability, T/C (second compound 3.16 µM, first compound 0.003 µM) 145% | viability, T/C [43] 125% | viability, T/C [44] 130% | viability, T/C [45] 105% | viability, T/C [46] 109% | viability, T/C (second compound 10 µM, first compound 0.000949 µM) 176% | viability, T/C (second compound 10 µM, first compound 0.003 µM) 170% | viability, T/C [47] 157% | viability, T/C [48] 139% | viability, T/C [49] 125% | viability, T/C [50] 127%
> 300 nM: IC50 (second compound 0.1 µM) | IC50 (second compound 0.316 µM) | IC50 (second compound 1 µM) | IC50 (second compound 3.16 µM) | IC50 (second compound 10 µM)
